# Laboratory results from US20200000825A1, “METHODS AND COMPOSITIONS FOR TREATING AND PREVENTING VIRAL INFECTIONS” (ENTERIN LABORATORIES, INC., priority 2009, published 2020).
# Read-outs that look alike come from different tables or passages of the source.
# Key:
# Yellow Fever [1] = type: in vivo, Syrian hamsters; conditions: squalamine 15 mg/kg/d s.c. qd, -24 h to 6 dpi
# Yellow Fever [2] = type: in vivo, Syrian hamsters
# [3] = test system: murine cytomegalovirus (MCMV); type: in vivo, Balb/c mice
# [4] = test system: Eastern Equine Encephalitis Virus; type: in vivo
# Dengue virus = assay: Dengue infection of HMEC-1 cells, immunohistochemical detection of viral E protein (Example 11); type: cell-based, human
# Protocol: Cells were grown on uncoated glass cover-slips following a published protocol (Zamudio-Meza, Castillo-Alvarez et al. 2009). The cells were pretreated with squalamine for 2 hr at 37° C. prior to viral exposure; virus (multiplicity of infection of 3) remained in contact with cells for 30 minutes at 4° C., followed by 90 minutes at 37° C. The medium was then replaced with fresh medium lacking virus and squalamine and maintained at 37° C. for 48 hrs. Cells were fixed and processed for immunohistochemical detection of viral E protein. Viral E protein expression was used to monitor the early stages of infection.
# human Hepatitis B virus = assay: Hepatitis B virus replication in primary human hepatocytes, PCR (Example 12); type: cell-based
# Protocol: Primary human hepatocytes were established in a 96 well microtiter plate. Squalamine was then added at concentrations of 2, 6 or 20 μg/ml followed by an inoculum of Hep B virus, and then in culture for 16 hours, after which fresh medium was introduced, and the cells maintained in culture for 14 days. In a second experiment, squalamine at 6 or 20 μg/ml was added to the cells at 24 hours post inoculation for a 16 hour exposure, followed by removal of medium, replacement with fresh medium, and continued culture for 14 days. Viral growth was measured by PCR using viral specific primers and normalized to the total RNA extracted from each corresponding well.
# [5] = test system: human immunodeficiency virus (HIV)
# [6] = cited from earlier work
# [7] = cited from earlier work; remark: listed apart in the source
# [8] = mouse, in vivo, ip, 10 mg/kg/day
# [9] = 500 mg/m(2)/day, 5-day continuous i.v. infusion
compound,measurement,setting,value
"CC(C)[C@@H](CC[C@@H](C)[C@H]1CC[C@H]2[C@@H]3[C@H](O)C[C@H]4C[C@@H](NCCCNCCCCN)CC[C@]4(C)[C@H]3CC[C@]12C)OS(=O)(=O)O [Squalamine, squalamine]",Survival,Yellow Fever [1],70%
same,Animals cured (survival through day 21),Yellow Fever [2]; squalamine 15 mg/kg/day s.c. from 1 dpi to 8 dpi,60%
same,Animals cured (survival through day 21),Yellow Fever [2]; squalamine 30 mg/kg/day s.c. from 1 dpi to 8 dpi,60%
same,Animals cured (survival through day 21),Yellow Fever [2]; squalamine 30 mg/kg/day s.c. from 2 dpi to 9 dpi,40%
same,Viral titers in lung versus control,[3]; 10 mg/kg/day i.p.,trend toward reduction
same,Viral titers versus control cohort,"[3]; day 7, spleen and liver, 10 mg/kg/day s.c. and i.p. groups",significantly lower
same,"Viral titers, difference between groups","[3]; days 3 to 7, lungs and salivary glands",no significant differences
same,Effect on viral growth,[3]; [8],little effect
same,Reduction in viral growth,[3]; [8],greater than 10 fold
same,Virus in liver and spleen,[3]; [8],undetectable
same,Virus in liver and spleen versus controls,"[3]; mouse, in vivo, sc, 10 mg/kg/day",significantly reduced
same,Efficacy in mice,[4],ineffective
same,Inhibition of viral infection,Dengue virus; 46 ug/ml,about 80%
same,Inhibition of viral infection,Dengue virus; 60 μg/ml and higher,~100%
same,Inhibition of viral infection,Dengue virus; 62 ug/ml,100%
same,"Cell viability (morphology, phase contrast)",Dengue virus; HMEC-1 cells at the effective squalamine concentrations,not diminished
same,Inhibition of viral infection,Dengue virus; about 40 μg/ml,80%
same,Inhibition of viral infection,Dengue virus; concentrations above 40 ug/ml,almost completely inhibited
same,Inhibition of viral production,"human Hepatitis B virus; 2 μg/ml, added at the outset of infection",14%
same,Inhibition of viral production,"human Hepatitis B virus; 6 μg/ml, added at 24 hours",30%
same,Inhibition of viral production,"human Hepatitis B virus; 6 μg/ml, added at the onset of infection",54%
same,Inhibition of viral production,"human Hepatitis B virus; 20 μg/ml, added at 24 hours",64%
same,Inhibition of viral production,"human Hepatitis B virus; 20 μg/ml, added during initial stages of infection",83%
same,Inhibition of HIV infection,[5],about 50%
same,Toxicity towards the HeLa cells,[5]; 30 μg/ml,no evidence of toxicity
same,Mean clearance,[6]; [9],2.67 liters/h/m(2)
same,Mean half-life,[6]; [9],9.46 h
same,Mean volume of distribution,[6]; [9],36.84 liters/m(2)
same,Steady-state concentrations,[6]; [9],20.08 micro g/ml
same,Patients with dose-limiting grade 4 hyperbilirubinemia and grade 3 neurosensory changes,[6]; 500 mg/m(2)/day,one of seven
same,Tolerability,[6]; 500 mg/m(2)/day,well tolerated
same,Patients who developed grade 4 hyperbilirubinemia,[6]; 700 mg/m(2)/day,two of three
same,Dose dependence of pharmacokinetics,[6]; 6 to 700 mg/m(2)/day,dose-proportional
same,"Patients with dose-limiting toxicity (grade 3/4 arthralgia, myalgia, neutropenia)",[7]; 400 mg/m(2)/day with paclitaxel and carboplatin,two of three
same,Tolerability of the combination,"[7]; continuous daily for 5 days, with paclitaxel and carboplatin on day 1",well tolerated
